US11472815B2, “1,4-diphenyl-1H-imidazole and 2,4-diphenylthiazole derivatives and preparation method therefor and use thereof” (SOUTHERN MEDICAL UNIVERSITY, priority 2018, dated 2022)

Molecular target: TLR1/2 (Homo sapiens (Human), UniProt O60603+Q15399)
Experiment: Detection of TLR1/2 activation activity (SEAP signal) using TLR1/2 HEK BLUE cells
Format: cell-based
Settings: not given
Description: TLR1/2 activation activity was detected using TLR1/2 HEK BLUE cells. TLR1/2 HEK BLUE cells were cultured in DMEM medium containing 10% fetal bovine serum, 1% penicillin and streptomycin, and incubated in a 37° C. cell incubator containing 5% CO2.
HEK BLUE TLR1/2 cells were spread in a 384-well plate at 20,000 cells/well, cultured at 37° C., 5% CO2 for 24 hours, 25 μL per well. When the cells grew well, 100 μM compound and doubling-diluted for 11 concentration gradients. After the cells were kept for 24 hours in the CO2 incubator, 40 μL of indigo blue solution was added to each well of the plate in the dark, and reading was conducted 4 times in an interval of 15 minutes at 620 nm to detect the signal intensity of SEAP in the cell supernatant.

TLR1/2, sequence (Q15399 25-786): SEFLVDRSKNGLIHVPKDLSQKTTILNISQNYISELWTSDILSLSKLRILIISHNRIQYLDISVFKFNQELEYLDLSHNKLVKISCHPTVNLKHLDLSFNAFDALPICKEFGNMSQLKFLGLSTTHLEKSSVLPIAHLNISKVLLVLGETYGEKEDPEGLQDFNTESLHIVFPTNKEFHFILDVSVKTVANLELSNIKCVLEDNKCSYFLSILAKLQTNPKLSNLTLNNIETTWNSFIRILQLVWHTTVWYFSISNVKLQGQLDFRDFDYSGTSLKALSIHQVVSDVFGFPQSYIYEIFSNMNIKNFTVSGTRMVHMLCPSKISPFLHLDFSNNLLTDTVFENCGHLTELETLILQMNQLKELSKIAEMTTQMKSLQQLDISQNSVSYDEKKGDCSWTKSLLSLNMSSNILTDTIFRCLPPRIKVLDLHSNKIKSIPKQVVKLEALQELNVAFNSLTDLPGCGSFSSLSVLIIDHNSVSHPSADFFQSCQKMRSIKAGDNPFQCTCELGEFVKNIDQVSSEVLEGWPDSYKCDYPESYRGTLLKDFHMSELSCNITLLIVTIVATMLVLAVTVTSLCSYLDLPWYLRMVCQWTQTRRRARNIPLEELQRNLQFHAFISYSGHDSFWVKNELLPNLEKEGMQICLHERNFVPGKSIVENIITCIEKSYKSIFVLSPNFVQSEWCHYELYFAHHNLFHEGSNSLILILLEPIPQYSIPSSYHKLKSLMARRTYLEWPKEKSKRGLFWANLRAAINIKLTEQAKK
TLR1/2, sequence (O60603 19-784): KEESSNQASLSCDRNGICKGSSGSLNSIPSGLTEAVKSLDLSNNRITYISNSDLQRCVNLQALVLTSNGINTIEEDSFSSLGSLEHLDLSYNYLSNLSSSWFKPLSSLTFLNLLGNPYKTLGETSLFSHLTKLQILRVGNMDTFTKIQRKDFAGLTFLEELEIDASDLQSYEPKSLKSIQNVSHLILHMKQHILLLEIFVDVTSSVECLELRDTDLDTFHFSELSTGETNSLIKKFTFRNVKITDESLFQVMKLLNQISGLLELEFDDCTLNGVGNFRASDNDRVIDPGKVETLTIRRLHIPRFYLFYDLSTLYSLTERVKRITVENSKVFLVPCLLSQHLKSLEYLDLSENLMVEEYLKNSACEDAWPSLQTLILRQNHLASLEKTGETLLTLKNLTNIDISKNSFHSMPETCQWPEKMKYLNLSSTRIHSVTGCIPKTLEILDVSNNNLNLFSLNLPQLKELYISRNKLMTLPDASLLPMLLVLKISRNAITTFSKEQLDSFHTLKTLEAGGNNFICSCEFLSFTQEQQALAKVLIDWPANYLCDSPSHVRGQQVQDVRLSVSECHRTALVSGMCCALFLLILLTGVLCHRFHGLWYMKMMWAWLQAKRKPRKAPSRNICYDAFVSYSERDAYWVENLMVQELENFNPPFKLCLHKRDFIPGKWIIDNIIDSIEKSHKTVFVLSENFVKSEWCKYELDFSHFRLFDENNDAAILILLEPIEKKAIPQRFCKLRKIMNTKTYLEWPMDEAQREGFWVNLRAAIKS

Row | Compound | TLR1/2 activation (in words)
1 | CNc1ccc([N+](=O)[O-])cc1-n1cnc(-c2ccc(C(F)(F)F)cc2O)c1 [Compound 22, 2-(1-(2-(methylamino)-5-nitrophenyl)-1H-imidazol-4-yl)-5-(trifluoromethyl)phenol] | activates TLR1/2 activity in a concentration-dependent manner

Same assay, conditions: HEK BLUE TLR1/2 cells, 24 hours, SEAP read at 620 nm; highest concentration 100 μM; [‡] highest SEAP signal less than 50% of the activation value of compound 22

Row | Compound | EC50 | TLR1/2 activation activity EC50
2 | CNc1c(Cl)cc([N+](=O)[O-])cc1-n1cnc(-c2ccc(C#N)cc2)c1 [Compound 27, 4-(1-(3-chloro-2-(methylamino)-5-nitrophenyl)-1H-imidazol-4-yl)benzonitrile] | > 1 µM | –
3 | FC(F)(F)c1ccc(-c2csc(-c3ccccc3)n2)cc1 [Compound 3, 2-phenyl-4-(4-(trifluoromethyl)phenyl)thiazole] | > 1 µM | –
4 | CNc1ccc([N+](=O)[O-])cc1-n1cnc(-c2ccc(C(F)(F)F)cc2OCCOCCOCCI)c1 [Compound 41, 2-(4-(2-(2-(2-(2-iodoethoxy)ethoxy)ethoxy)-4-(trifluoromethyl)phenyl)-1H-imidazole-1-yl)-N-methyl-4-nitroaniline] | > 1 µM | –
5 | CNc1ccc([N+](=O)[O-])cc1-n1cnc(-c2ccc(C(F)(F)F)cc2OCCBr)c1 [Compound 31, 2-(4-(2-(2-bromoethoxy)-4-(trifluoromethyl)phenyl)-1H-imidazol-1-yl)-N-methyl-4-nitroaniline] | > 1 µM | –
6 | CCOc1cc(C(F)(F)F)ccc1-c1cn(-c2cc([N+](=O)[O-])ccc2NC)cn1 [Compound 29, 2-(4-(2-ethoxy-4-(trifluoromethyl)phenyl)-1H-imidazol-1-yl)-N-methyl-4-nitroaniline] | > 1 µM | –
7 | CNc1ccc([N+](=O)[O-])cc1-n1cnc(-c2ccc(C(F)(F)F)cc2OCCCBr)c1 [Compound 32, 2-(4-(2-(3-bromopropoxy)-4-(trifluoromethyl)phenyl)-1H-imidazol-1-yl)-N-methyl-4-nitroaniline] | > 1 µM | –
8 | Oc1cc(C(F)(F)F)ccc1-c1csc(-c2cccc(C(F)(F)F)c2)n1 [Compound 14, 5-(trifluoromethyl)-2-(2-(3-(trifluoromethyl)phenyl)thiazol-4-yl)phenol] | – | NA[†]
9 | FC(F)(F)c1ccc(-c2csc(-c3cccc(C(F)(F)F)c3)n2)cc1 [Compound 4, 2-(3-(trifluoromethyl)phenyl)-4-(4-(trifluoromethyl)phenyl)thiazole] | > 1 µM | –
10 | Oc1cc(C(F)(F)F)ccc1-c1csc(-c2ccccc2)n1 [Compound 13, 2-(2-phenylthiazol-4-yl)-5-(trifluoromethyl)phenol] | – | NA[†]
11 | CNc1ccc([N+](=O)[O-])cc1-n1cnc(-c2ccc(C(F)(F)F)cc2OCc2ccccc2)c1 [Compound 30, 2-(4-(2-(benzyloxy)-4-(trifluoromethyl)phenyl)-1H-imidazol-1-yl)-N-methyl-4-nitroaniline] | > 1 µM | –
12 | FC(F)(F)c1ccc(-c2csc(-c3cc(C(F)(F)F)cc(C(F)(F)F)c3)n2)cc1 [Compound 7, 2-(3,5-bis(trifluoromethyl)phenyl)-4-(4-(trifluoromethyl)phenyl)thiazole] | – | NA[†]
13 | CNc1ccc([N+](=O)[O-])cc1-n1cnc(-c2ccc(C(F)(F)F)cc2OCCOCCO)c1 [Compound 34, 2-(2-(2-(1-(2-(methylamino)-5-nitrophenyl)-1H-imidazol-4-yl)-5-(trifluoromethyl)phenoxy)ethoxy)ethanol] | > 1 µM | –
14 | Oc1cc(C(F)(F)F)ccc1-c1csc(-c2cc(C(F)(F)F)cc(C(F)(F)F)c2)n1 [Compound 17, 2-(2-(3,5-bis(trifluoromethyl)phenyl)thiazol-4-yl)-5-(trifluoromethyl)phenol] | – | NA[†]

Second part, the compound after the results:

Row | EC50 | TLR1/2 activation activity EC50 | Compound
15 | 0.0923 ± 0.0123 µM | – | CNc1ccc([N+](=O)[O-])cc1-n1cnc(-c2ccc(C(F)(F)F)cc2OC)c1 [Compound 28, 2-(4-(2-methoxy-4-(trifluoromethyl)phenyl)-1H-imidazol-1-yl)-N-methyl-4-nitroaniline]
16 | 0.764 ± 0.0102 µM | – | CNc1ccc([N+](=O)[O-])cc1-n1cnc(-c2ccc(C(F)(F)F)cc2OCCNC(=O)CCCC[C@@H]2SC[C@@H]3NC(=O)N[C@@H]32)c1 [Compound 44, N-(2-(2-(1-(2-(methylamino)-5-nitrophenyl)-1H-imidazol-4-yl)-5-(trifluoromethyl)phenoxyl)ethyl)-5-((3AS,4S,6AR)-2-oxohexahydro-1H-thieno[3,4-d]imidazol-4-yl)pentanamide]
17 | > 1 µM | – | CNc1ccc([N+](=O)[O-])cc1-n1cnc(-c2ccc(C(F)(F)F)cc2OCC(N)=O)c1 [Compound 42, (2-(1-(2-(methylamino)-5-nitrophenyl)-1H-imidazo-4-yl)-5-(trifluoromethyl)phenoxy)acetamide]
18 | 0.0249 ± 0.00615 µM | – | CNc1ccc([N+](=O)[O-])cc1-n1cnc(-c2ccc(OC(F)(F)F)cc2O)c1 [Compound 21, 2-(1-(2-(methylamino)-5-nitrophenyl)-1H-imidazol-4-yl)-5-(trifluoromethoxy)phenol]
19 | 0.0456 ± 0.00315 µM | – | CNC(=O)c1ccc(NC)c(-n2cnc(-c3ccc(C(F)(F)F)cc3O)c2)c1 [Compound 25, 3-(4-(2-hydroxy-4-(trifluoromethyl)phenyl)-1H-imidazol-1-yl)-N-methyl-4-(methylamino)benzamide]
20 | 0.113 ± 0.0127 µM | – | CCCCCCCCCCCC(=O)Oc1cc(C(F)(F)F)ccc1-c1cn(-c2cc([N+](=O)[O-])ccc2NC)cn1 [Compound 37, 2-(1-(2-(methylamino)-5-nitrophenyl)-1H-imidazol-4-yl)-5-(trifluoromethyl)phenyl dodecanoate]
21 | 0.00514 ± 7e-05 µM | – | CNc1ccc(S(C)(=O)=O)cc1-n1cnc(-c2ccc(C(F)(F)F)cc2O)c1 [Compound 23, 2-(1-(2-(methylamino)-5-(methylsulfonyl)phenyl)-1H-imidazol-4-yl)-5-(trifluoromethyl)phenol]
22 | 0.0563 ± 0.00731 µM | – | CCCCCCCC(=O)Oc1cc(C(F)(F)F)ccc1-c1cn(-c2cc([N+](=O)[O-])ccc2NC)cn1 [Compound 36, 2-(1-(2-(methylamino)-5-nitrophenyl)-1H-imidazol-4-yl)-5-(trifluoromethyl)phenyl octanoate]
23 | 0.0169 ± 0.00279 µM | – | CNc1ccc([N+](=O)[O-])cc1-n1cnc(-c2ccc(C(F)(F)F)cc2OC(=O)c2ccccc2)c1 [Compound 38, 2-(1-(2-(methylamino)-5-nitrophenyl)-1H-imidazol-4-yl)-5-(trifluoromethyl)phenyl benzoate]
24 | 0.0188 ± 0.00365 µM | – | CNc1ccc([N+](=O)[O-])cc1-n1cnc(-c2ccc(C(F)(F)F)cc2OC(C)=O)c1 [Compound 35, (1-(2-(methylamino)-5-nitrophenyl)-1H-imidazol-4-yl)-5-(trifluoromethyl)phenyl acetate]
25 | 0.43286 ± 5e-05 µM | – | CNc1ccc(C(=O)OC)cc1-n1cnc(-c2ccc(C(F)(F)F)cc2O)c1 [Compound 24, Methyl 3-(4-(2-hydroxy-4-(trifluoromethyl)phenyl)-1H-imidazol-1-yl)-4-(methylamino)benzoate]
26 | 0.192 ± 0.0172 µM | – | CNc1c(Cl)cc([N+](=O)[O-])cc1-n1cnc(-c2ccc(C(F)(F)F)cc2O)c1 [Compound 26, 2-(1-(3-chloro-2-(methylamino)-5-nitrophenyl)-1H-imidazol-4-yl)-5-(trifluoromethyl)phenol]
27 | 0.00488 ± 0.00079 µM | – | CNc1ccc([N+](=O)[O-])cc1-n1cnc(-c2ccc(C(F)(F)F)cc2O)c1 [Compound 22, 2-(1-(2-(methylamino)-5-nitrophenyl)-1H-imidazol-4-yl)-5-(trifluoromethyl)phenol]
28 | 0.012 ± 0.00267 µM | – | CNc1ccc([N+](=O)[O-])cc1-n1cnc(-c2ccc(C(F)(F)F)cc2OC(=O)/C=C/c2ccccc2)c1 [Compound 39, (1-(2-(methylamino)-5-nitrophenyl)-1H-imidazol-4-yl)-5-(trifluoromethyl)phenyl cinnamate]

Same assay, conditions: even at a low concentration (15 nM)

Row | signal intensity of TLR1/2 alkaline phosphatase (SEAP) | Compound
29 | significantly activate | CNc1ccc([N+](=O)[O-])cc1-n1cnc(-c2ccc(C(F)(F)F)cc2O)c1 [Compound 22, 2-(1-(2-(methylamino)-5-nitrophenyl)-1H-imidazol-4-yl)-5-(trifluoromethyl)phenol]
